Measured values reported in US20240270821A1, “GIP/GLP1/GCG TRI-RECEPTOR AGONISTS AND USES THEREOF” (priority 2023, published 2024).
Like-named read-outs stand apart in the source and are kept apart here. Starred links: 1 amine or outer side, 2 acyl side, 3 side chain; linkers in the order of their positions; H or OH if unused. Non-standard residues stand in square brackets, D forms with d. Groups on a side chain read outwards from the residue. *: point of attachment. C20 diacid = O=C(O)CCCCCCCCCCCCCCCCCCC(=O)*; C18 diacid = O=C(O)CCCCCCCCCCCCCCCCC(=O)*; γGlu = O=C(O)[C@H](CCC(=O)[*:2])N[*:1]; αMe4Pal = C[C@](N)(Cc1ccncc1)C(=O)O; αMeY = C[C@](N)(Cc1ccc(O)cc1)C(=O)O; 4Pal = N[C@@H](Cc1ccncc1)C(=O)O; αMeL = CC(C)C[C@](C)(N)C(=O)O; Orn = NCCC[C@H](N)C(=O)O; AEEA = NCCOCCOCC(=O)O; Aib = CC(C)(N)C(=O)O

Key:
Assay type in all cases: cell-based
hGIPR [1] = target: T1, hGIPR (Homo sapiens, UniProt P48546); assay: Functional cAMP activity in the presence of 1% HSA; settings: read-out: cAMP Rel EC50, hGIPR
T1 sequence (P48546 22-466): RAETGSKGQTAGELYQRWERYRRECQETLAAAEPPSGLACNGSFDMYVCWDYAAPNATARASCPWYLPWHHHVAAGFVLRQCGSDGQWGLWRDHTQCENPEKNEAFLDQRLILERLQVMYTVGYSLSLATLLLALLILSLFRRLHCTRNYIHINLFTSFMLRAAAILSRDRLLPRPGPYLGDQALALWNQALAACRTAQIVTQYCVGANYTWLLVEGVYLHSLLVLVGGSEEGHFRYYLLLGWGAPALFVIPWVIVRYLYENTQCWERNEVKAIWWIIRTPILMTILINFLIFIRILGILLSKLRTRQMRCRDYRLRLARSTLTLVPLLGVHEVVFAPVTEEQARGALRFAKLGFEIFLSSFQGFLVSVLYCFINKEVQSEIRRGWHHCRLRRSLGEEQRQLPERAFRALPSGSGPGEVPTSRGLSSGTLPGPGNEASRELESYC

hGLP-1R [2] = target: T2, hGLP-1R (Homo sapiens, UniProt P43220); assay: Functional cAMP activity in the presence of 1% HSA; settings: read-out: cAMP Rel EC50, hGLP-1R
T2 sequence (P43220 24-463): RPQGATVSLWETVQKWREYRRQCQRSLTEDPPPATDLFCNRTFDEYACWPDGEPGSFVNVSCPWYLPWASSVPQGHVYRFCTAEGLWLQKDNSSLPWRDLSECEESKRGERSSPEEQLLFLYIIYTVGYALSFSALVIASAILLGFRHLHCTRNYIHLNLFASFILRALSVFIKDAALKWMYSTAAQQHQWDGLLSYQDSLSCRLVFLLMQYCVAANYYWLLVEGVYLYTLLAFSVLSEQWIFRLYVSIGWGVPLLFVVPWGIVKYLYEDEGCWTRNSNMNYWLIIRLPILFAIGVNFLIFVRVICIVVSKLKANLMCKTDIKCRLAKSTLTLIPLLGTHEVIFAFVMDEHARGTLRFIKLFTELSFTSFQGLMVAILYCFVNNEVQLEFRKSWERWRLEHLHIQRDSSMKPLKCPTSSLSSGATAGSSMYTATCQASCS

human GcgR = human GcgR (Homo sapiens, UniProt P47871); assay: Functional cAMP activity in the presence of 1% HSA; settings: read-out: cAMP Rel EC50, hGcgR
human GcgR, sequence (P47871 26-477): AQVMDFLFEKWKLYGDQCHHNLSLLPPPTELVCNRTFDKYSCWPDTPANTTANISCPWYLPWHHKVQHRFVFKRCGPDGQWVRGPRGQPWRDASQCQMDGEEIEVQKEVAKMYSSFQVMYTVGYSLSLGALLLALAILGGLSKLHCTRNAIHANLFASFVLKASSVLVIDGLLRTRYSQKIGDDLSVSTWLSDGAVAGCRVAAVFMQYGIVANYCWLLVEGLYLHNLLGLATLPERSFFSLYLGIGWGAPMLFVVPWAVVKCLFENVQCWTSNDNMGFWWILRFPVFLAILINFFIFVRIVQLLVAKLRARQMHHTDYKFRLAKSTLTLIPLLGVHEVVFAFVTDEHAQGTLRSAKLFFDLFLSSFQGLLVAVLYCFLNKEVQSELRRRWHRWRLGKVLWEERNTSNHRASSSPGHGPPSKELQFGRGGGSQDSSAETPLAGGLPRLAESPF

hGIPR [3] = target: T1, hGIPR; assay: Functional cAMP activation in the presence of 0.1% casein (no HSA); settings: read-out: Relative cAMP EC50, hGIPR;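 as to Relative cAMP EC50, hGIPR: intracellular cAMP rise after 30 min at 37 °C read by HTRF against a standard curve, scaled between buffer alone (0%) and top control ligand concentration (100%), four-parameter fit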;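 as to Relative cAMP EC50, hGLP-1R: intracellular cAMP rise after 30 min at 37 °C read by HTRF, normalized between buffer only (0%) and maximal control ligand (100%), four-parameter variable-slope fit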;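 as to Relative cAMP EC50, hGcgR: intracellular cAMP rise after 30 min at 37 °C, read by HTRF against a cAMP standard curve, scaled from buffer only (0%) to maximal control ligand response (100%)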
hGLP-1R [4] = target: T2, hGLP-1R; assay: as above; settings: read-out: Relative cAMP EC50, hGLP-1R
hGcgR = hGcgR (Homo sapiens, UniProt P47871); assay: as above; settings: read-out: Relative cAMP EC50, hGcgR;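 also: intracellular cAMP rise after 30 min at 37 °C, read by HTRF against a cAMP standard curve, scaled from buffer only (0%) to maximal control ligand response (100%)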
hGcgR, sequence (P47871 26-477): as above

[5] = in the presence of 0.1% casein (no HSA), geometric mean
[6] = HEK-293 clonal cell line, in the presence of 1% HSA, geometric mean of relative EC50

Substance | EC50 (hGIPR [1]) [nM] | EC50 (hGLP-1R [2]) [nM] | EC50 (human GcgR) [nM] | EC50 (hGIPR [3]; [5]) [nM] | EC50 (hGLP-1R [4]; [5]) [nM] | EC50 (hGcgR; [5]) [nM] | EC50 (hGIPR [3]) [nM] | EC50 (hGLP-1R [4]) [nM] | EC50 (hGcgR) [nM] | EC50 (hGIPR [1]; [6]) [nM] | EC50 (hGLP-1R [2]; [6]) [nM] | EC50 (human GcgR; [6]) [nM]
H-Y[Aib]QGTFTSDFS[Orn][αMeL]LDKK([AEEA-γGlu-γGlu-C18 diacid])AQ[Aib]AFIEYLLE[Aib]GHSSGAPPPSGS-NH2 [Example 243] | 12.1 | 610 | 711 | 0.178 | 6.46 | 6.86 |  |  |  |  |  | 
H-Y[Aib]QGTFTSDFS[Orn][αMeL]LDKK([γGlu-AEEA-γGlu-C18 diacid])AQ[Aib]AFIEYLLE[Aib]GESSGAPPPSGS-NH2 [Example 244] | 18.8 | 645 | 1230 | 0.0972 | 7.68 | 4.81 |  |  |  |  |  | 
H-Y[Aib]QGTFTSDFS[Orn][αMeL]LDKK([γGlu-AEEA-γGlu-C18 diacid])AQ[Aib]AFIEYLLE[Aib]GHSSGAPPPSGS-NH2 [Example 245] | 10.5 | 540 | 1120 | 0.0684 | 5.99 | 7.07 |  |  |  |  |  | 
H-Y[Aib]QGTFTSDFS[Orn][αMeL]LDKK([γGlu-AEEA-γGlu-C18 diacid])AQ[Aib]AFIEYLLE[Aib]GPSSGAPPPSG[4Pal]-NH2 [Example 277] | 13.3 | 639 | 1690 | 0.0672 | 5.56 | 10.6 |  |  |  |  |  | 
H-Y[Aib]QGTFTSDFS[Orn][αMeL]LDKK([γGlu-γGlu-C18 diacid])AQ[Aib]AFIEYLLEGGPSSG[Aib]PPPGGS-NH2 [Example 771] | 44.2 | 665 | 955 |  |  |  | 0.232 | 4.38 | 5.05 |  |  | 
H-Y[Aib]QGTFTSDFS[Orn][αMeL]LDKK([γGlu-γGlu-C18 diacid])AQ[Aib]AFIEYLLEGGPSS[Aib]APPPGGS-NH2 [Example 770] | 18.2 | 240 | 390 |  |  |  | 0.244 | 3.91 | 5.37 |  |  | 
H-Y[Aib]QGTFTSDFS[Orn][αMeL]LDKK([γGlu-γGlu-C18 diacid])AQ[Aib]AFIEYLLE[Aib]GPSSGAPPPSGS-NH2 [Example 201] | 14.3 | 679 | 969 | 0.0553 | 3.16 | 3.84 |  |  |  |  |  | 
H-Y[Aib]QGTFTSDFS[Orn][αMeL]LDKK([γGlu-γGlu-γGlu-C18 diacid])AQ[Aib]AFIEYLLE[Aib]GPSSGAPPPSGS-NH2 [Example 202] | 11.7 | 376 | 697 | 0.0965 | 4.79 | 11.4 |  |  |  |  |  | 
H-Y[Aib]QGTFTSDFS[Orn][αMeL]LD[Orn]K([γGlu-γGlu-C18 diacid])AQ[Aib]AFIEYLLEGGPSSGAPPPGGSEE-NH2 [Example 1048] |  |  |  | 0.356 | 6.23 | 6.9 |  |  |  | 108 | 1900 | 1930
H-Y[Aib]QGTFTSDFS[Orn][αMeL]LD[Orn]K([γGlu-γGlu-C18 diacid])AQ[Aib]AFIE[αMe4Pal]LLEGGPSSGAPPPGGSEE-NH2 [Example 1050] |  |  |  | 0.152 | 7.65 | 6.8 |  |  |  | 68.5 | 1240 | 2040
H-Y[Aib]QGTFTSDFS[Orn][αMeL]LD[Orn]K([γGlu-γGlu-C18 diacid])AQ[Aib]AFIE[αMeY]LLEGGPSSGAPPPGGSEE-NH2 [Example 1049] |  |  |  | 0.24 | 2.23 | 6.33 |  |  |  | 56.2 | 780 | 1280
H-Y[Aib]QGTFTSDYSI[αMeL]LDKIAAK([AEEA-AEEA-γGlu-C20 diacid])QFVEWLLA[Aib]GPSSGEPPPSEG-NH2 [Example 324] | 20.7 | 1060 | 1410 | 0.164 | 4.4 | 5.74 |  |  |  |  |  | 
H-Y[Aib]QGTFTSDYSI[αMeL]LDKIAAK([AEEA-AEEA-γGlu-C20 diacid])QFVEYLIAGGPSSGEPPPSEG-NH2 [Example 312] | 97.7 | 589 | 4070 | 0.504 | 2.66 | 7.5 |  |  |  |  |  | 
